IC50 and inhibition data for one molecule are collected here from ChEMBL document CHEMBL2424646, “Design, synthesis and biological evaluation of novel mansonone E derivatives prepared via CuAAC click chemistry as topoisomerase II inhibitors” (Eur J Med Chem, 2013).

A word on the IC50: it is the concentration that gives 50% inhibition. High values mean a need for much substance, low ones inhibition by little substance.

Calls of active or inactive are those of the source. No cut-off for these calls is given here.

One test concerns HeLa. As to the kind of experiment: Cytotoxicity against human HeLa cells after 48 hrs by MTT assay. It counts as functional, cell-based. On the technique in general: Tetrazolium dyes change colour on reduction, which living cells bring about.
The subject of another test is HL-60. The test is described as follows: Cytotoxicity against human HL60 cells after 48 hrs by MTT assay. The class given is functional, cell-based. As to conditions: HL-60, 48 h.
The next test has as its system K562. As to the kind of experiment: Cytotoxicity against human K562 cells after 48 hrs by MTT assay. The class given is functional, cell-based. The following applies: K562, 48 h.
For another test, the system named is A549. As to the kind of experiment: Cytotoxicity against human A549 cells after 48 hrs by MTT assay. The class given is functional, cell-based. As to conditions: A549, 48 h.
Test [1] concerns the target T1, DNA topoisomerase 2-alpha (Homo sapiens, UniProt P11388). As to the kind of experiment: Inhibition of human DNA topoisomerase 2alpha-mediated relaxation of supercoiled pBR322 at 20 uM after 30 mins by agarose gel electrophoresis.
In test [2] the target is T1, DNA topoisomerase 2-alpha. The test is described as follows: Inhibition of human DNA topoisomerase 2alpha using pBR322 DNA at 2 uM after 30 mins by agarose gel electrophoresis.
In test [3] the target is T2, DNA topoisomerase 1 (Homo sapiens) (UniProt P11387).
T2 sequence (whole entry): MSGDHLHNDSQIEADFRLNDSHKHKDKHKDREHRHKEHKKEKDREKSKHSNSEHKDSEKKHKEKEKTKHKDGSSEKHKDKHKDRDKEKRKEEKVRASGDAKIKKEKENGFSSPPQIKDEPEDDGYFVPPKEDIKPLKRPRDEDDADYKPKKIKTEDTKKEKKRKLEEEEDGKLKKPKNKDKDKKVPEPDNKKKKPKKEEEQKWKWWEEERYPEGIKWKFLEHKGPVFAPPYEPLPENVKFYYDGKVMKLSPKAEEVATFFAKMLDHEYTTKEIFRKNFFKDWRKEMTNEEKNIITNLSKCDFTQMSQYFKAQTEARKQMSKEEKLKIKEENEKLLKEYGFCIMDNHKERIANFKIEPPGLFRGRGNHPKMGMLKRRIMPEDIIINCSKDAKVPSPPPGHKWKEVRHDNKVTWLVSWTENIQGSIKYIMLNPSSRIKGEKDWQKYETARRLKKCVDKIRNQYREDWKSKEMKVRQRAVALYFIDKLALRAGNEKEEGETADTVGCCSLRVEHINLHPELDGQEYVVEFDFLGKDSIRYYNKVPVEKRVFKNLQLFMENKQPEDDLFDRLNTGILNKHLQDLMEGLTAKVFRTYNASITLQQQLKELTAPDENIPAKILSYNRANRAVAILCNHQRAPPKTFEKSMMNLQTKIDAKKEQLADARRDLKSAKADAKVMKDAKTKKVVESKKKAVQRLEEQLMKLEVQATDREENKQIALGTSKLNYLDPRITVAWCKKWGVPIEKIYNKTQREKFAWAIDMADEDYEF
The test is described as follows: Inhibition of DNA topoisomerase 1 (unknown origin)-mediated relaxation of supercoiled pBR322 at 50 uM after 30 mins by agarose gel electrophoresis.

T1 sequence (P11388 whole entry): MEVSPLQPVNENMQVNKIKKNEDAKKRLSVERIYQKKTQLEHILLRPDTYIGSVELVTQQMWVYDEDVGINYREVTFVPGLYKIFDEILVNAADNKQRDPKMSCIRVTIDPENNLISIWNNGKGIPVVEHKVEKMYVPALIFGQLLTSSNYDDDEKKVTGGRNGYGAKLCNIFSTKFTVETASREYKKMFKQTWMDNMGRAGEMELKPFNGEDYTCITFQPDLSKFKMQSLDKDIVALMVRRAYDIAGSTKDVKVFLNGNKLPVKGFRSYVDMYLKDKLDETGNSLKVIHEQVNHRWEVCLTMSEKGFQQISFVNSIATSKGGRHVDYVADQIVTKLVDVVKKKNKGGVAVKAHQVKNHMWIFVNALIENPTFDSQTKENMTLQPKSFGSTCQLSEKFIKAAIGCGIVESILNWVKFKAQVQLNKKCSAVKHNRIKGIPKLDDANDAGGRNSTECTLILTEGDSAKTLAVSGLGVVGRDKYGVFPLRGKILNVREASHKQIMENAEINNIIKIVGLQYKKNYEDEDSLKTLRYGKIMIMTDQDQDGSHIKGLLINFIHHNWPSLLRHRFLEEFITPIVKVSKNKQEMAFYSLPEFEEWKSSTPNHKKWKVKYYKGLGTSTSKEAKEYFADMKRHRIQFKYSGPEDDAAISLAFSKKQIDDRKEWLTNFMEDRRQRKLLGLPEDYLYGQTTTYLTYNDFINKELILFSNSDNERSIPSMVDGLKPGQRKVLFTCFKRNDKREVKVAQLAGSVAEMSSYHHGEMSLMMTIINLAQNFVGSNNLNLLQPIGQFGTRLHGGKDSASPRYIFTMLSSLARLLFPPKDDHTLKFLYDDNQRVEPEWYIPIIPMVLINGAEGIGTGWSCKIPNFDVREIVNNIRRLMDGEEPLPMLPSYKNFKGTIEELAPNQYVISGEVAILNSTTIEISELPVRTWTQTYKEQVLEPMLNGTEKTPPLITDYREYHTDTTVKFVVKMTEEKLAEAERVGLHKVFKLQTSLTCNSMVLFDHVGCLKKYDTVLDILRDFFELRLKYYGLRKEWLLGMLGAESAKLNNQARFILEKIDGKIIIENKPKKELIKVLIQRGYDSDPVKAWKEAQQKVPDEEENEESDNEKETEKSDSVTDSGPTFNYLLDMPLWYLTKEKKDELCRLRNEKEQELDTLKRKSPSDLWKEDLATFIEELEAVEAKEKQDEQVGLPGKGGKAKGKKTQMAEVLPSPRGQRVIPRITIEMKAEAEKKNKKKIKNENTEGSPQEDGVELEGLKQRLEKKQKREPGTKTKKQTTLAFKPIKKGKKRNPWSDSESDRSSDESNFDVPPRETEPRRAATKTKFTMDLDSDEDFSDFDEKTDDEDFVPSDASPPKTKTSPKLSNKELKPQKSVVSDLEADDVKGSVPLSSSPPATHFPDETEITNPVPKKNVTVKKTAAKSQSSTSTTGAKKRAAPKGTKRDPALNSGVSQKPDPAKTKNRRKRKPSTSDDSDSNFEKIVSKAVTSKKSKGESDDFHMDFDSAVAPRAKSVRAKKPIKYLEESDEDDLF

For the molecule `CCc1ccc(-c2cn(C3COC4=C(Cl)C(=O)C(=O)c5cccc3c54)nn2)cc1` (configuration not stated), the IC50 turned out to be 29.1 µM in the test with HeLa, 2.9 µM in the test on HL-60, 10.6 µM in the test on K562 and 29.5 µM in the test on A549. Also, the inhibition entry in test [1] and in test [2] was “Active” in each case. In addition, the inhibition result in test [3] is “inactive”.
